# From US20090270474A1, “Therapeutic Agent for Keratoconjunctival Disorder” (priority 2005, published 2009)
# Tested on: corneal disorder models
# Test: Test for therapeutic effect on corneal disorder (exorbital lacrimal gland removal model, fluorescein staining score)
# Assay type: in vivo, male SD rats
# Protocol: Using male SD rats, corneal disorder models were produced in accordance with the method of Fujihara et al. (Invest. Opthalmol. Vis. Sci. 42 (1): 96-100 (2001)). After the production of the corneal disorder models, the corneal disorder score was evaluated in accordance with the method of Murakami et al. (Journal of the eye 21 (1): 87-90 (2004)), and the improvement ratio of corneal disorder after instillation of eprosartan mesylate (hereinafter referred to as “Compound A”) was obtained.
# As test animals, male SD rats were used, and systemic anesthesia was given to the rats by administration of Nembutal. Subsequently the exorbital lacrimal gland was removed and a corneal disorder was induced over a period of 2 months.
# Then, Compound A was administered as follows.
# A phosphate-buffered saline solution (PBS solution) containing Compound A (0.1%) was instilled into both eyes 6 times a day for 14 days (instilled amount: 5 μL/dose) (one group consisting of 4 animals, 8 eyes).
# In a control group, PBS solution was instilled into both eyes 6 times a day for 14 days (instilled amount: 5 μL/dose) (one group consisting of 4 animals, 8 eyes).
# Fourteen days after the start of instillation, the damaged parts of the cornea were stained with fluorescein. For each of the upper, middle and lower parts of the cornea, the degree of fluorescein staining was evaluated by scoring according to the criteria shown below and the improvement ratio of corneal disorder was calculated from the mean value of the total scores for each of the above-mentioned parts.
# Also for normal eyes, the mean value of the total scores for each of the above-mentioned parts was obtained. […]
# By taking the mean value of the total scores for the control group (PBS solution) as a standard (improvement ratio: 0%) and according to the calculation formula shown below, the improvement ratio in the Compound A instillation group was calculated, which is shown in Table 1. […]
smiles,measurement,setting,value
"CCCCc1ncc(/C=C(\Cc2cccs2)C(=O)O)n1Cc1ccc(C(=O)O)cc1 [Compound A, (E)-a-[[2-n-butyl-1-[(4-carboxyphenyl)methyl]-1H-imidazol-5-yl]methylene]-2-thiophenepropionic acid monomethanesulfonate]",Improvement ratio (%),"0.1% in PBS instilled 6 times a day for 14 days, {(control)-(Compound A)}/((control)-(normal eye))x100, control = 0%",84.8%
same,Improvement of corneal damage (in words),"rats, Table 1, 0.1% instillation for 14 days",significantly improved a corneal damage
same,Mean value of scores,"total fluorescein staining score (upper, middle, lower cornea, each 0-3), 0.1% in PBS instilled into both eyes 6 times a day for 14 days, mean of 8 eyes, control 6.1, normal eye 2.8",3.3
